Measured values reported in patent publication US5198533A, “LHRH antagonists” (The Administrators of the Tulane Educational Fund, priority 1988, dated 1993).
Where a SMILES comes first, the peptide text is derived from it. [ ]: non-standard residue; d: D form. dPhe(4-Cl) = N[C@H](Cc1ccc(Cl)cc1)C(=O)O; d2Nal = N[C@H](Cc1ccc2ccccc2c1)C(=O)O; dCit = NC(=O)NCCC[C@@H](N)C(=O)O; d3Pal = N[C@H](Cc1cccnc1)C(=O)O

Tested on: edema of the face and extremities
Experiment: edematogenic test of Schmidt, et al.
Format: in vivo, rat
Details: 1.5 mg/kg s.c. once a day on two consecutive days
Description: In the edematogenic test of Schmidt, et al. (Contraception, 29, 283-289, 1984), however, a marked difference can be found between the control peptides and the peptides of the present invention. The control […] 1.50 mg/kg. No such reaction can be observed with the peptides of the present invention when given at a subcutaneous dose of 1.5 mg/kg.
In the tests as run, the rats were assigned to three groups of […] per group per compound tested. Comparison was made with a known prior art compound designated ORG 30276 namely (N-Ac-D-p-Cl-Phe^1,2,D-Trp^3,D-Arg^6,D-Ala^10)-LHRH. The groups were injected subcuntaneously once a day on two consecutive days with the LHRH antagonists at a dose level of 1.5 mg/kg. One control group was injected with diluent only. The rats were observed during five hours each day. Reactions of the rats were classified as follows: NR no apparent reaction, PR partial responders: edema of the nasal and paranasal area, FR full responders: facial edema with edematous extremities.

## CC(=O)N[C@H](Cc1ccc2ccccc2c1)C(=O)N[C@H](Cc1ccc(Cl)cc1)C(=O)N[C@H](Cc1cccnc1)C(=O)N[C@@H](CO)C(=O)N[C@@H](Cc1ccc(O)cc1)C(=O)N[C@H](CCCNC(N)=O)C(=O)N[C@@H](CC(C)C)C(=O)N[C@@H](CCCNC(=N)N)C(=O)N1CCC[C@H]1C(=O)N[C@H](C)C(N)=O [EX XXVI, Ac-D-Nal-D-Phe(4-Cl)-D-Pal(3)-Ser-Tyr-D-Cit-Leu-Arg-Pro-D-AlaNH2] (Ac-[d2Nal][dPhe(4-Cl)][d3Pal]SY[dCit]LRP[dA]-NH2)
* = very light edema of the face
  2nd Day PR (number of rats, partial responders: edema of the nasal and paranasal area): 0
Observed five hours each day
  1st Day FR (number of rats, full responders: facial edema with edematous extremities): 0
  1st Day NR (number of rats, no apparent reaction): 8
  1st Day PR (number of rats, partial responders: edema of the nasal and paranasal area): 0
  2nd Day FR (number of rats, full responders: facial edema with edematous extremities): 0
  2nd Day NR (number of rats, no apparent reaction): 8
